The source of these data is patent publication US20050004186A1, “MEK inhibiting compounds” (Pfizer Inc, priority 2002, published 2005).

Data set [1] has as its system MEK. The data set can be described thus: Cellular assay for measuring MEK inhibition, C26CPA1 (inhibition of ERK phosphorylation in C26 cells). In kind it is cell-based, murine. Conditions: murine colon 26 (C26) carcinoma cells, one hour at 37 C. The method in brief:
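Exponentially growing murine C26 carcinoma cells treated with test compound for one hour at 37° C. CPA1 read-out: Western blot of lysates with dually phosphorylated ERK1/2 antibody, re-probed for total ERK1/2. ELSA read-out: pERK enzyme immunometric ELISA on SDS lysates diluted 1:15.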

Data set [2] deals with MEK. The experiment in a line: Cellular assay for measuring MEK inhibition, C26ELSA (pERK ELISA format in C26 cells). In kind it is cell-based, murine. Conditions: for IC50: murine colon 26 (C26) carcinoma cells, one hour at 37 C; for C26ELSA % Inhibition @ 5 μM / C26ELSA % Inhib @ 0.5 μM: C26 cells. As to the method:
Cellular Assay for Measuring MEK Inhibition
MEK inhibitors were evaluated by determining their ability to inhibit phosphorylation of MAP kinase (ERK) in murine colon 26 (C26) carcinoma cells. Since ERK1 and ERK2 represent the only known substrates for MEK1 and MEK2, the measurement of inhibition of ERK phosphorylation in cells provides direct read out of cellular MEK inhibition by the compounds of the invention. Detection of phosphorylation of ERK was carried out either by Western blot or ELISA format. Briefly, the assays involve treatment of exponentially growing C26 cells with varying concentrations of the test compound (or vehicle control) for one hour at 37≡ C. For Western blot assay, cells were rinsed free of compound/vehicle and lysed in a solution containing 70 mM NaCl, 50 mM glycerol phosphate, 10 mM HEPES, […], 1% Triton X-100, 1 mM Na3VO4, 100 μM PMSF, 10 μM leupeptin and 10 μM pepstatin. Supernatants were then subjected to gel electrophoresis and hybridized to a primary antibody recognizing dually phosphorylated ERK1 and ERK2. To evaluate total MAPK levels, blots were subsequently ‘stripped’ and re-probed with a 1:1 mixture of polyclonal antibodies recognizing unphosphorylated ERK1 and ERK2. For pERK ELISA assay, pERK TiterZyme Enzyme immunometric Assay kits were acquired from Assay Designs, Inc (Ann Arbor, Mich.). Briefly, cells were harvested in lysis solution containing 50 mM β-glycerophosphate, 10 mM HEPES, pH7.4, 70 mM NaCl, 2 mM EDTA and 1% SDS and protein lysates were diluted 1:15 with supplied Assay buffer prior to the execution of the assay. The subsequent steps were carried out essentially as recommended by the manufacturer.
Background: An ELISA detects its analyte on a solid surface through an enzyme-linked reagent.

The IC50 is the concentration that gives 50% inhibition. Higher therefore signals a need for much substance. Broadly, the melting point is the temperature of the solid-liquid transition. With `CN(C)CC(C)(C)CNc1nnc(-c2ccc(F)c(F)c2Nc2ccc(I)cc2F)o1` [Example 19, N-{5-[3,4-Difluoro-2-(2-fluoro-4-iodo-phenylamino)-phenyl]-[1,3,4]oxadiazol-2-yl}-2,2,N′,N′-tetramethyl-propane-1.3-diamine], the melting point was in the range of 143 to 146 °C. Besides, it took 0.309 µM to reach half-maximal inhibition in data set [1] (IC50). The corresponding values for `COCCN1CCN(c2nnc(-c3ccc(F)c(F)c3Nc3ccc(I)cc3F)o2)CC1` [Example 22, (2,3-Difluoro-6-{5-[4-(2-methoxy-ethyl)-piperazin-1-yl]-[1,3,4]oxadiazol-2-yl}-phenyl)-(2-fluoro-4-iodo-phenyl)-amine] are 63 to 65 °C and 0.13 µM. For `CC(C)(CO)CCCNc1nnc(-c2ccc(F)c(F)c2Nc2ccc(I)cc2F)o1` [Example 23, 5-{5-[3,4-Difluoro-2-(2-fluoro-4-iodo-phenylamino)-phenyl]-[1,3,4]oxadiazol-2-ylamino}-2,2-dimethyl-pentan-1-ol], the melting point was 67 to 70 °C. In data set [1], this compound had an IC50 of 0.292 µM. In the same order, the values of `OC1CCN(c2nnc(-c3ccc(F)c(F)c3Nc3ccc(I)cc3F)o2)C1` (centres unmarked) [Example 24, 1-{5-[3.4-Difluoro-2-(2-fluoro-4-iodo-phenylamino)-phenyl]-[1,3,4]oxadiazol-2-yl}-pyrrolidin-3-ol] are 182 to 183 °C and 0.17 µM. As for `OCC1CCN(c2nnc(-c3ccc(F)c(F)c3Nc3ccc(I)cc3F)o2)CC1` [Example 25, (1-{5-[3,4-Difluoro-2-(2-fluoro-4-iodo-phenylamino)-phenyl]-[1,3,4]oxadiazol-2-yl}-piperidin-4-yl)-methanol], the melting point lay within 90 to 92 °C. In data set [1], this compound gave an IC50 greater than 1 µM. In the same order, the values of `OCCC1CCN(c2nnc(-c3ccc(F)c(F)c3Nc3ccc(I)cc3F)o2)CC1` [Example 26, 2-(1-{5-[3,4-Difluoro-2-(2-fluoro-4-iodo-phenylamino)-phenyl]-[1,3,4]oxadiazol-2-yl}-piperidin-4-yl)-ethanol] are 121 to 122 °C and 0.14 µM. The compound `CCN(CCCCO)c1nnc(-c2ccc(F)c(F)c2Nc2ccc(I)cc2F)o1` [Example 27, 4-({5-[3,4-Difluoro-2-(2-fluoro-4-iodo-phenylamino)-phenyl]-[1,3,4]oxadiazol-2-yl}-ethyl-amino)-butan-1-ol] displayed a melting point of 121 to 122 °C. The same compound showed an IC50 in data set [1] of 0.18 µM.

With `OC1CCN(c2nnc(-c3ccc(F)c(F)c3Nc3ccc(I)cc3F)o2)CC1` [Example 28, 1-{5-[3,4-Difluoro-2-(2-fluoro-4-iodo-phenylamino)-phenyl]-[1,3,4]oxadiazol-2-yl}-piperidin-4-ol], the melting point lay within 216 to 217 °C. This compound came in with an IC50 in data set [1] of 0.074 µM. In the same order, the values of `OCCNc1nnc(-c2ccc(F)c(F)c2Nc2ccc(I)cc2F)o1` [Example 29, 2-{5-[3,4-Difluoro-2-(2-fluoro-4-iodo-phenylamino)-phenyl]-[1,3,4]oxadiazol-2-ylamino}-ethanol] are 100 to 103 °C and 0.015 µM.

As for `OCCCCNc1nnc(-c2ccc(F)c(F)c2Nc2ccc(I)cc2F)o1` [Example 31, 4-{5-[3,4-Difluoro-2-(2-fluoro-4-iodo-phenylamino)-phenyl]-[1,3,4]oxadiazol-2-ylamino}-butan-1-ol], the melting point was 82 to 83 °C. The compound further came in with an IC50 in data set [1] of 0.012 µM. The corresponding values for `OCCCCCNc1nnc(-c2ccc(F)c(F)c2Nc2ccc(I)cc2F)o1` [Example 32, 5-{5-[3,4-Difluoro-2-(2-fluoro-4-iodo-phenylamino)-phenyl]-[1,3,4]oxadiazol-2-ylamino}-pentan-1-ol] are 119 to 121 °C and 0.12 µM. The corresponding values for `CCc1ccc(Nc2c(-c3nnc(NCCNC)o3)ccc(F)c2F)c(F)c1` [Example 67, N-{5-[2-(4-Ethyl-2-fluoro-phenylamino)-3,4-difluoro-phenyl]-[1,3,4]oxadiazol-2-yl}-N′-methyl-ethane-1,2-diamine] are 154 to 157 °C and 0.016 µM. With `CCc1ccc(Nc2c(-c3nnc(NCCN4CCOCC4)o3)ccc(F)c2F)c(F)c1` [Example 68, {5-[2-(4-Ethyl-2-fluoro-phenylamino)-3,4-difluoro-phenyl]-[1,3,4]oxadiazol-2-yl}-(2-morpholin-4-yl-ethyl)-amine], the melting point was in the range of 233 to 238 °C. Besides, inhibition in data set [1] was half-maximal at 0.05 µM (IC50).

In the case of `CCc1ccc(Nc2c(-c3nnc(NCCO)o3)ccc(F)c2F)c(F)c1` [Example 69, 2-{5-[2-(4-Ethyl-2-fluoro-phenylamino)-3,4-difluoro-phenyl]-[1,3,4]oxadiazol-2-ylamino}-ethanol], the melting point was in the range of 100 to 103 °C. In addition, the IC50 in data set [1] stood at 0.1 µM. In turn, `CCNc1nnc(-c2ccc(F)c(F)c2Nc2ccc(I)cc2F)s1` [Example 71, {5-[3,4-Difluoro-2-(2-fluoro-4-iodo-phenylamino)-phenyl]-[1,3,4]thiadiazol-2-yl}-ethyl-amine] showed a melting point of 238 to 239 °C. Besides, in data set [1], the IC50 was 0.18 µM. Turning to `C#Cc1ccc(Nc2c(-c3nnc(NCCO)o3)ccc(F)c2F)c(F)c1` [Example 140, 2-{5-[2-(4-Ethynyl-2-fluoro-phenylamino)-3,4-difluoro-phenyl]-[1,3,4]oxadiazol-2-ylamino}-ethanol], the melting point lay within 115.9 to 116.5 °C. The compound also yielded an IC50 in data set [2] of 0.003 µM.

The compound `CCc1nnc(-c2ccc(F)c(F)c2Nc2ccc(I)cc2F)o1` [Example 143, [6-(5-Ethyl-[1,3,4]oxadiazol-2-yl)-2,3-difluoro-phenyl]-(2-fluoro-4-iodo-phenyl)-amine] gave a melting point of 97 to 98 °C. For the same compound, the “C26ELSA % Inhibition @ 5 μM” value in data set [2] was determined as 88%.

In the case of `C#Cc1ccc(Nc2c(-c3nnc(CC)o3)ccc(F)c2F)c(F)c1` [Example 144, [6-(5-Ethyl-[1,3,4]oxadiazol-2-yl)-2,3-difluoro-phenyl]-(4-ethynyl-2-fluoro-phenyl)-amine], the “C26ELSA % Inhibition @ 5 μM” value in data set [2] is 43%. Take `CCc1ccc(Nc2c(-c3nnc(CCCBr)o3)ccc(F)c2F)c(F)c1` [Example 145, {6-[5-(3-Bromo-propyl)-[1,3,4]oxadiazol-2-yl]-2,3-difluoro-phenyl}-(4-ethyl-2-fluoro-phenyl)-amine]: in data set [2], the “C26ELSA % Inhibition @ 5 μM” value is 13%. The same measure, in the same setting: next, `CCc1ccc(Nc2c(-c3nnc(CCCN4CCOCC4)o3)ccc(F)c2F)c(F)c1` [Example 146, {2,3-Difluoro-6-[5-(3-morpholin-4-yl-propyl)-[1,3,4]oxadiazol-2-yl]-phenyl}-(4-ethyl-2-fluoro-phenyl)-amine]: 6%.

On to `OCCCc1ccc(Nc2c(-c3nnc(NCCN4CCOCC4)o3)ccc(F)c2F)c(F)c1` [Example 147, 3-(4-{2,3-Difluoro-6-[5-(2-morpholin-4-yl-ethylamino)-[1,3,4]oxadiazol-2-yl]-phenylamino}-3-fluoro-phenyl)-propan-1-ol], for which the melting point was in the range of 102 to 106 °C. For the same compound, the IC50 in data set [2] came to 34 µM.

Consider `C#Cc1ccc(Nc2c(-c3nnc(NCCN4CCOCC4)o3)ccc(F)c2F)c(F)c1` [Example 148, {5-[2-(4-Ethynyl-2-fluoro-phenylamino)-3,4-difluoro-phenyl]-[1,3,4]oxadiazol-2-yl}-(2-morpholin-4-yl-ethyl)-amine], for which the melting point fell in the range of 146 to 148 °C. Also, the IC50 in data set [2] was found to be 0.063 µM. On to `CC(=O)c1ccc(Nc2c(-c3nnc(NCCN4CCOCC4)o3)ccc(F)c2F)c(F)c1` [Example 149, 1-(4-{2,3-Difluoro-6-[5-(2-morpholin-4-yl-ethylamino)-[1,3,4]oxadiazol-2-yl]-phenylamino}-3-fluoro-phenyl)-ethanone], for which, in data set [2], the “C26ELSA % Inhib @ 0.5 μM” value is 2% and the “C26ELSA % Inhibition @ 5 μM” value is 14%. For `C#Cc1ccc(Nc2c(-c3nnc(NC[C@@H](O)CO)o3)ccc(F)c2F)c(F)c1` [Example 151, 3-{5-[2-(4-Ethynyl-2-fluoro-phenylamino)-3,4-difluoro-phenyl]-[1,3,4]oxadiazol-2-ylamino}-propane-1,2(R)-diol], the IC50 in data set [2] is 0.12 µM. In the case of `OCCc1ccc(Nc2c(-c3nnc(NCCN4CCOCC4)o3)ccc(F)c2F)c(F)c1` [Example 157, 2-(4-{2,3-difluoro-6-[5-(2-morpholin-4-yl-ethylamino)-[1,3,4]oxadiazol-2-yl]-phenylamino}-3-fluoro-phenyl)-ethanol], in data set [2], the “C26ELSA % Inhib @ 0.5 μM” value came out at 31% and the “C26ELSA % Inhibition @ 5 μM” value worked out at 33%. In turn, `OCCNc1nnc(-c2ccc(F)c(F)c2Nc2ccc(CCO)cc2F)o1` [Example 169, 2-(5-{3,4-difluoro-2-[2-fluoro-4-(2-hydroxy-ethyl)phenylamino]-phenyl}-[1,3,4]oxadiazol-2-ylamino)ethanol] returned an IC50 in data set [2] of 5.1 µM.
